Source: patent publication EP2970215B1, “PYRROLIDINE DERIVATIVES, PHARMACEUTICAL COMPOSITIONS CONTAINING THEM, AND THEIR USE IN THERAPY” (AbbVie Deutschland GmbH & Co. KG, priority 2013, dated 2014)

The compounds below were run against T1, human GlyT1c transporter (Homo sapiens, UniProt P48067) (assay: Radioligand binding assay using recombinant CHO cell membranes expressing human GlyT1). Settings: radioligand binding to human GlyT1c transporter-expressing membranes.
T1 construct: expressed in transfected cells; host or cells: CHO cells (recombinant; line hGlyT1c_5_CHO is named for the uptake assay)
T1 sequence (P48067 1-706): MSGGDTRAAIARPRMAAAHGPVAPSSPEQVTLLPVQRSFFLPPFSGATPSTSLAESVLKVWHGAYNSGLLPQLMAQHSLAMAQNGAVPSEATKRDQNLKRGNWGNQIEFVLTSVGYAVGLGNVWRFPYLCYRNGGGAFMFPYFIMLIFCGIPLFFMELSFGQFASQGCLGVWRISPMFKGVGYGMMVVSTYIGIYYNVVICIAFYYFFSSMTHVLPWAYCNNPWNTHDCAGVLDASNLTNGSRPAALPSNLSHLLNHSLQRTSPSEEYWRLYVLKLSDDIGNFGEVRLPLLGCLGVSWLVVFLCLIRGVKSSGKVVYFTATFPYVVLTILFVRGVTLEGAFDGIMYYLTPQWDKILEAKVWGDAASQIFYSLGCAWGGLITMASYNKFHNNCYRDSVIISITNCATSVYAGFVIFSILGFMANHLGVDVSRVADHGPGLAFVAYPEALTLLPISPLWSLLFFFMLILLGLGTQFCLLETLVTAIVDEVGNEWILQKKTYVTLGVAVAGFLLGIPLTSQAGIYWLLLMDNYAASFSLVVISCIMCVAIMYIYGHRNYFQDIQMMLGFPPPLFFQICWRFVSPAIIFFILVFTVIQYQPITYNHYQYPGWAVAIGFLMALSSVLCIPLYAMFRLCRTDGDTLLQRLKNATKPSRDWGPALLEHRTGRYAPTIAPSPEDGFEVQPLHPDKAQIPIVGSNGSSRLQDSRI
From the text: 2. Radioligand binding assays using recombinant CHO cell membranes expressing human GlyT1: […]
In the case of `Cn1cnc(S(=O)(=O)N2C[C@@H](Nc3ccc(F)cc3)[C@H](c3ccc(F)cc3)C2)c1` (relative stereo) [Example 92, trans-N,4-bis(4-fluorophenyl)-1-[(1-methyl-1H-imidazol-4-yl)sulfonyl]pyrrolidin-3-amine], the Ki is reported as ≤ 100 nM. For `Cn1cnc(S(=O)(=O)N2C[C@H](Nc3cccc(S(C)(=O)=O)c3)[C@@H](c3ccccc3)C2)c1` [Example 422, (3R,4S)-1-[(1-methyl-1H-imidazol-4-yl)sulfonyl]-N-[3-(methylsulfonyl)phenyl]-4-phenylpyrrolidin-3-amine], the Ki was ≤ 1000 nM. With `CC(=O)Nc1ccc(Cl)cc1N[C@@H]1CN(S(=O)(=O)c2cn(C)cn2)C[C@H]1c1ccc(F)cc1` (relative stereo) [Example 372, N-[4-chloro-2-({Trans-4-(4-fluorophenyl)-1-[(1-methyl-1H-imidazol-4-yl)sulfonyl]pyrrolidin-3-yl}amino)phenyl]acetamide] the Ki was ≤ 10000 nM. In the case of `Cc1oncc1S(=O)(=O)N1CC(Nc2ccc(F)c(F)c2)C(c2ccccc2)C1` (stereo not shown) [Example 487, N-(3,4-difluorophenyl)-1-[(5-methyl-1,2-oxazol-4-yl)sulfonyl]-4-phenylpyrrolidin-3-amine], the Ki is reported as ≤ 10000 nM. With `Cn1cnc(S(=O)(=O)N2C[C@@H](Nc3ccc(F)c(F)c3)[C@H](c3ccccc3)C2)c1` (relative stereo) [Example 216, trans-N-(3,4-difluorophenyl)-1-[(1-methyl-1H-imidazol-4-yl)sulfonyl]-4-phenylpyrrolidin-3-amine] the Ki was ≤ 1000 nM. For `Cc1nc(CN[C@H]2CN(S(=O)(=O)c3cn(C)cn3)C[C@@H]2c2ccccc2)cs1` [Example 533, (3R,4S)-1-[(1-methyl-1H-imidazol-4-yl)sulfonyl]-N-[(2-methyl-1,3-thiazol-4-yl)methyl]-4-phenylpyrrolidin-3-amine], the Ki was ≤ 10000 nM. `Cn1cnc(S(=O)(=O)N2C[C@@H](Nc3cc(F)ccc3F)[C@H](c3ccccc3)C2)c1` (relative stereo) [Example 232, trans-N-(2,5-difluorophenyl)-1-[(1-methyl-1H-imidazol-4-yl)sulfonyl]-4-phenylpyrrolidin-3-amine] was tested, and the Ki was ≤ 10000 nM. With `Cn1cnc(S(=O)(=O)N2C[C@@H](Nc3ccnc(C(F)(F)F)c3)[C@H](c3ccccc3)C2)c1` (relative stereo) [Example 211, N-{trans-1-[(1-methyl-1H-imidazol-4-yl)sulfonyl]-4-phenylpyrrolidin-3-yl}-2-(trifluoromethyl)pyridin-4-amine] the Ki was ≤ 1000 nM. In the case of `O=C(N[C@@H]1CN(S(=O)(=O)CC2CC2)C[C@H]1c1ccccc1)c1ccc(C(F)(F)F)cc1` (relative stereo) [Example 128, N-{trans-1-[(cyclopropylmethyl)sulfonyl]-4-phenylpyrrolidin-3-yl}-4-(trifluoromethyl)benzamide], the Ki is reported as ≤ 10000 nM. With `Cn1cnc(S(=O)(=O)N2C[C@@H](Nc3ccc(Cl)c(Cl)c3)[C@H](c3ccccc3)C2)c1` (relative stereo) [Example 218, trans-N-(3,4-dichlorophenyl)-1-[(1-methyl-1H-imidazol-4-yl)sulfonyl]-4-phenylpyrrolidin-3-amine] the Ki was ≤ 1000 nM. For `Cn1cnc(S(=O)(=O)N2C[C@@H](NCc3ccccc3C(F)(F)F)[C@H](c3ccc(F)cc3)C2)c1` (relative stereo) [Example 265, trans-4-(4-fluorophenyl)-1-[(1-methyl-1H-imidazol-4-yl)sulfonyl]-N-[2-(trifluoromethyl)benzyl]pyrrolidin-3-amine], the Ki was ≤ 1000 nM. For `Cn1cnc(S(=O)(=O)N2C[C@H](NCc3sc(Cl)nc3Cl)[C@@H](c3ccccc3)C2)c1` [Example 435, (3R,4S)-N-[(2,4-dichloro-1,3-thiazol-5-yl)methyl]-1-[(1-methyl-1H-imidazol-4-yl)sulfonyl]-4-phenylpyrrolidin-3-amine], the Ki was ≤ 100 nM. `Cn1cnc(S(=O)(=O)N2C[C@H](OCCNc3ccc(Cl)cc3)[C@@H](c3ccc(F)cc3)C2)c1` [Example 740, 4-chloro-N-[2-({(3R,4S)-4-(4-fluorophenyl)-1-[(1-methyl-1H-imidazol-4-yl)sulfonyl]pyrrolidin-3-yl}oxy)ethyl]aniline] was tested, and the Ki was ≤ 10000 nM. In the case of `CCC(C)(C)CN[C@H]1CN(S(=O)(=O)c2cn(C)cn2)C[C@@H]1c1ccccc1` [Example 450, (3R,4S)-N-(2,2-dimethylbutyl)-1-[(1-methyl-1H-imidazol-4-yl)sulfonyl]-4-phenylpyrrolidin-3-amine], the Ki is reported as ≤ 1000 nM. `Cn1cnc(S(=O)(=O)N2C[C@H](Nc3cc(-c4cccc(F)c4)ncn3)[C@@H](c3ccc(F)cc3)C2)c1` [Example 727, 6-(3-fluorophenyl)-N-{(3R,4S)-4-(4-fluorophenyl)-1-[(1-methyl-1H-imidazol-4-yl)sulfonyl]pyrrolidin-3-yl}pyrimidin-4-amine] was tested, and the Ki was ≤ 10 nM. With `Cn1cnc(S(=O)(=O)N2C[C@@H](Nc3cc(F)cc(C(F)(F)F)c3)[C@H](c3ccc(F)cc3)C2)c1` (relative stereo) [Example 168, trans-4-(4-fluorophenyl)-N-[3-fluoro-5-(trifluoromethyl)phenyl]-1-[(1-methyl-1H-imidazol-4-yl)sulfonyl]pyrrolidin-3-amine] the Ki was ≤ 100 nM. For `Cn1cnc(S(=O)(=O)N2C[C@H](Nc3ccc(F)c(-c4ccncc4)c3)[C@@H](c3ccc(F)cc3)C2)c1` [Example 746, (3R,4S)-4-(4-fluorophenyl)-N-[4-fluoro-3-(pyridin-4-yl)phenyl]-1-[(1-methyl-1H-imidazol-4-yl)sulfonyl]pyrrolidin-3-amine], the Ki was ≤ 10 nM. `CC(C)c1cccc(N[C@@H]2CN(S(=O)(=O)c3cn(C)cn3)C[C@H]2c2ccc(F)cc2)c1` (relative stereo) [Example 170, trans-4-(4-fluorophenyl)-1-[(1-methyl-1H-imidazol-4-yl)sulfonyl]-N-[3-(propan-2-yl)phenyl]pyrrolidin-3-amine] was tested, and the Ki was ≤ 100 nM. `Cn1cnc(S(=O)(=O)N2CC(Nc3cccnn3)C(c3ccc(F)cc3)C2)c1` (stereo not shown) [Example 350, N-{4-(4-fluorophenyl)-1-[(1-methyl-1H-imidazol-4-yl)sulfonyl]pyrrolidin-3-yl}pyridazin-3-amine] was tested, and the Ki was > 10000 nM. `Cn1cnc(S(=O)(=O)N2C[C@@H]([C@@H]3CCCOC3)[C@H](Nc3cccc(OCc4ccccc4)c3)C2)c1` (mixture of isomers) [Example 794, Trans-N-[3-(benzyloxy)phenyl]-1-[(1-methyl-1H-imidazol-4-yl)sulfonyl]-4-[(3S)-tetrahydro-2H-pyran-3-yl]pyrrolidin-3-amine] was tested, and the Ki was ≤ 1000 nM. With `Cn1cnc(S(=O)(=O)N2C[C@@H](Nc3cccc(Cl)c3)[C@H](OCC3CC3)C2)c1` (relative stereo) [Example 530, Trans-N-(3-chlorophenyl)-4-(cyclopropylmethoxy)-1-[(1-methyl-1H-imidazol-4-yl)sulfonyl]pyrrolidin-3-amine] the Ki was ≤ 1000 nM. `NC(=O)c1ccccc1S(=O)(=O)N1C[C@@H](Nc2cc(C(F)(F)F)ccn2)[C@H](c2ccccc2)C1` (relative stereo) [Example 526, 2-{[trans-3-phenyl-4-{[4-(trifluoromethyl)pyridin-2-yl]amino}pyrrolidin-1-yl]sulfonyl}benzamide] was tested, and the Ki was ≤ 10000 nM.

Same assay, conditions: radioligand binding, recombinant CHO cell membranes expressing human GlyT1c
With `Cn1cnc(S(=O)(=O)N2C[C@@H](Nc3cccc(OCC(F)(F)F)c3)[C@H](C3CCOC3)C2)c1` (relative stereo) [Example 834, trans-1-[(1-methyl-1H-imidazol-4-yl)sulfonyl]-4-(tetrahydrofuran-3-yl)-N-[3-(2,2,2-trifluoroethoxy)phenyl]pyrrolidin-3-amine] the Ki was ≤ 1000 nM. With `Cc1cc(N[C@@H]2CN(S(=O)(=O)c3cn(C)cn3)C[C@H]2C2CCCO2)ncc1F` (relative stereo) [Example 851, 5-Fluoro-4-methyl-N-[trans-1-[(1-methyl-1H-imidazol-4-yl)sulfonyl]-4-(tetrahydrofuran-2-yl)pyrrolidin-3-yl]pyridin-2-amine] the Ki was ≤ 10000 nM. In the case of `Cn1cnc(S(=O)(=O)N2C[C@@H](Nc3ccc(F)c(C(F)(F)F)c3)[C@H](C3CCOC3)C2)c1` (relative stereo) [Example 832, trans-N-[4-fluoro-3-(trifluoromethyl)phenyl]-1-[(1-methyl-1H-imidazol-4-yl)sulfonyl]-4-(tetrahydrofuran-3-yl)pyrrolidin-3-amine], the Ki is reported as ≤ 1000 nM. For `Cc1cc(N[C@@H]2CN(S(=O)(=O)c3cn(C)cn3)C[C@H]2C2CCCO2)ccc1F` (relative stereo) [Example 845, Trans-N-(4-fluoro-3-methylphenyl)-1-[(1-methyl-1H-imidazol-4-yl)sulfonyl]-4-(tetrahydrofuran-2-yl)pyrrolidin-3-amine], the Ki was ≤ 1000 nM. For “(3R,4S)-4-(1,3-dioxan-2-yl)-N,N-dihexyl-1-[(1-methyl-1H-imidazol-4-yl)sulfonyl]pyrrolidin-3-amine [Example 909]”, the Ki was ≤ 1000 nM. `Cn1cnc(S(=O)(=O)N2C[C@@H](Nc3cc(C(F)(F)F)c(Cl)cn3)[C@H](C3CCCCO3)C2)c1` (relative stereo) [Example 848, 5-Chloro-N-[trans-1-[(1-methyl-1H-imidazol-4-yl)sulfonyl]-4-(tetrahydro-2H-pyran-2-yl)pyrrolidin-3-yl]-4-(trifluoromethyl)pyridin-2-amine] was tested, and the Ki was ≤ 1000 nM.
